Assays:
Test in all cases: relative viability (nuclei count vs DMSO), 5 days (fraction); higher = more cells survive
[1] = compound: CN(c1ncccc1CNc1nc(Nc2ccc3c(c2)CC(=O)N3)ncc1C(F)(F)F)S(C)(=O)=O + O=C(c1cc(Cc2n[nH]c(=O)c3ccccc23)ccc1F)N1CCN(C(=O)C2CC2)CC1 [Olaparib] (partner 8 µM)
Outline: (§1)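 Relative viability is defined as nuclei in treated wells over nuclei in vehicle wells. Duplicate plates were run and medians reported. Lung cancer cell lines in 1536-well plates were dosed by pin tool one day after seeding, with one drug or with a fixed anchor-drug dose plus five library-drug doses (not always all listed) in √10 steps, and nuclei were counted after 5 days.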

[2] = compound: CN(c1ncccc1CNc1nc(Nc2ccc3c(c2)CC(=O)N3)ncc1C(F)(F)F)S(C)(=O)=O + Nc1nc2[nH]cc(CCc3ccc(C(=O)N[C@@H](CCC(=O)O)C(=O)O)cc3)c2c(=O)[nH]1 [Pemetrexed] (partner 0.2 µM)
Outline: as §1

[3] = compound: CN(c1ncccc1CNc1nc(Nc2ccc3c(c2)CC(=O)N3)ncc1C(F)(F)F)S(C)(=O)=O + COc1cc2c(Oc3ccc(NC(=O)C4(C(=O)Nc5ccc(F)cc5)CC4)cc3F)ccnc2cc1OCCCN1CCOCC1 [Foretinib] (partner 0.25 µM)
Outline: as §1

[4] = compound: CN(c1ncccc1CNc1nc(Nc2ccc3c(c2)CC(=O)N3)ncc1C(F)(F)F)S(C)(=O)=O + Cc1nc(NC(=O)N2CCC[C@H]2C(N)=O)sc1-c1ccnc(C(C)(C)C(F)(F)F)c1 [Alpelisib] (partner 2 µM)
Outline: as §1

| Cell Line | relative viability ([1]; first compound 0.01 µM) | relative viability ([1]; first compound 0.03162 µM) | relative viability ([1]; first compound 0.1 µM) | relative viability ([1]; first compound 0.3162 µM) | relative viability ([1]; first compound 1 µM) | relative viability ([2]; first compound 0.01 µM) | relative viability ([2]; first compound 0.03162 µM) | relative viability ([2]; first compound 0.1 µM) | relative viability ([2]; first compound 0.3162 µM) | relative viability ([2]; first compound 1 µM) | relative viability ([3]; first compound 0.01 µM) | relative viability ([3]; first compound 0.03162 µM) | relative viability ([3]; first compound 0.1 µM) | relative viability ([3]; first compound 0.3162 µM) | relative viability ([3]; first compound 1 µM) | relative viability ([4]; first compound 0.01 µM) | relative viability ([4]; first compound 0.03162 µM) | relative viability ([4]; first compound 0.1 µM) | relative viability ([4]; first compound 0.3162 µM) | relative viability ([4]; first compound 1 µM) |
| --- | --- | --- | --- | --- | --- | --- | --- | --- | --- | --- | --- | --- | --- | --- | --- | --- | --- | --- | --- | --- |
| HOP-62 | 0.526 | 0.421 | 0.326 | 0.363 | 0.384 | 0.34 | 0.337 | 0.289 | 0.418 | 0.28 | 1.04 | 1.16 | 0.958 | 1.02 | 1.03 | 0.909 | 1.25 | 1.06 | 0.84 | 0.772 |
| NCI-H358 | 0.61 | 0.57 | 0.573 | 0.532 | 0.416 | 0.148 | 0.164 | 0.169 | 0.177 | 0.156 | 0.717 | 0.659 | 0.782 | 0.638 | 0.517 | 1.03 | 0.824 | 0.737 | 0.753 | 0.669 |
| SK-MES-1 | 0.718 | 0.76 | 0.731 | 0.538 | 0.499 | 0.968 | 0.894 | 0.882 | 0.904 | 0.762 | 0.905 | 0.919 | 0.817 | 1.01 | 0.868 | 0.915 | 0.926 | 0.843 | 0.882 | 0.712 |
| NCI-H1666 | 0.671 | 0.755 | 0.702 | 0.744 | 0.706 | 0.877 | 0.82 | 0.805 | 0.78 | 0.787 | 0.977 | 0.874 | 0.851 | 0.976 | 0.843 | 1.11 | 0.72 | 0.877 | 0.79 | 0.686 |
| NCI-H1355 | 0.7 | 0.784 | 0.713 | 0.691 | 0.669 | 1.02 | 0.981 | 0.993 | 1.02 | 0.973 | 0.937 | 1.01 | 1 | 0.884 | 0.907 | 0.882 | 0.945 | 0.797 | 0.801 | 0.696 |
| HCC-827 | 0.635 | 0.557 | 0.647 | 0.707 | 0.705 | 0.248 | 0.269 | 0.257 | 0.294 | 0.313 | 0.985 | 1.05 | 1.15 | 1.04 | 1.05 | 1.02 | 1.07 | 1.03 | 1.01 | 0.942 |
| HARA | 0.895 | 0.75 | 0.685 | 1.1 | 0.9 | 0.255 | 0.248 | 0.199 | 0.258 | 0.223 | 1.06 | 0.864 | 0.905 | 0.871 | 0.664 | 0.733 | 0.79 | 0.744 | 0.695 | 0.625 |
| HCC-366 | 0.351 | 0.376 | 0.347 | 0.292 | 0.352 | 0.219 | 0.172 | 0.164 | 0.172 | 0.186 | 0.899 | 0.925 | 0.942 | 0.982 | 0.781 | 0.35 | 0.471 | 0.455 | 0.389 | 0.309 |
| NCI-H322M | 0.741 | 0.774 | 0.739 | 0.878 | 0.832 | 0.615 | 0.606 | 0.651 | 0.635 | 0.714 | 1.05 | 1.09 | 0.986 | 1.21 | 1.31 | 0.821 | 0.79 | – | 0.902 | 0.96 |
| NCI-H2347 | 0.598 | 0.546 | 0.525 | 0.515 | 0.443 | 0.474 | 0.434 | 0.403 | 0.44 | 0.399 | 0.612 | 0.992 | 1.1 | 0.555 | 0.616 | 1.06 | 0.973 | 0.893 | 0.972 | 0.817 |
| NCI-H1975 | 0.799 | 0.873 | 0.821 | 0.832 | 0.7 | 0.296 | 0.283 | 0.275 | 0.296 | 0.288 | 0.962 | 0.984 | 0.959 | 0.84 | 0.929 | 0.66 | 0.592 | 0.611 | 0.67 | 0.59 |
| UMC-11 | 0.413 | 0.545 | 0.364 | 0.439 | 0.363 | 0.743 | 0.831 | 0.82 | 0.799 | 0.687 | 0.972 | 1.14 | 0.953 | 1.01 | 0.823 | 1 | 1.06 | 0.901 | 0.809 | 0.787 |
| A-427 | 0.752 | 0.738 | 0.651 | 0.741 | 0.651 | 0.939 | 0.956 | 0.932 | 0.955 | 0.948 | 1.04 | 1.18 | 1.01 | 1.16 | 1.07 | 1.09 | 1.15 | 1.02 | 1.15 | 1.08 |
| LCLC-97TM1 | 0.45 | 0.414 | 0.401 | 0.291 | 0.261 | 0.149 | 0.164 | 0.125 | 0.133 | 0.13 | 0.97 | 0.986 | 0.867 | 0.864 | 0.844 | – | 0.246 | 0.229 | 0.246 | 0.161 |
| HCC-15 | 0.778 | 0.799 | 0.713 | 0.661 | 0.619 | 0.22 | 0.237 | 0.218 | 0.21 | 0.215 | 0.968 | 1.06 | 0.963 | 0.951 | 0.916 | 0.849 | 0.892 | 0.819 | 0.785 | 0.779 |
| NCI-H647 | 0.528 | 0.494 | 0.708 | 0.597 | 0.488 | 0.192 | 0.163 | 0.167 | 0.178 | 0.17 | 1.18 | 1.04 | 1.14 | 1.1 | 1.22 | 1.09 | 0.919 | 1.14 | 1.02 | 1.17 |
